For experiment [1], the target named is T1, PI3Kδ (Homo sapiens, UniProt O00329).
T1 construct: purchased Millipore 14-604-K
The experiment is described as follows: In vitro kinase activity (LabChip EZ Reader mobility shift), PI3Kδ. The format is biochemical. Conditions: for IC50: kinase subtype PI3Kδ (p110δ/p85a). As to the method: (§1) Compounds: the compounds prepared in above examples of the present invention, each of which was prepared to a concentration of 10 mM in DMSO and diluted to […], 100 nM, 10 nM, 1 nM, 0.1 nM, 0.01 nM successively.
(§2) Reagents: PI3Kα (p110α(p85a), purchased from Invitrogen, Cat.No. PV4788; PIK3Cδ (p110δ/p85a), purchased from Millipore, Cat.No. 14-604-K; PIK3Cβ (p110β), purchased from Millipore, Cat.No. 14-603-K; PIK3Cγ (pp110γ), purchased from Invitrogen, Cat.No. PR8641C; DMSO, purchased from Sigma; EDTA, purchased from Sigma; 1× kinase buffer (50 mM HEPES, pH 7.5, 0.0015% Brij-35, 10 mM MgCl2, 2 mM DTT), which was prepared before use; termination solution (100 mM HEPES, pH 7.5, 0.015% Brij-35, 0.2% Coating Reagent#3, 50 mM EDTA), which was prepared before use.
(§3) Instruments: LabChip EZ Reader purchased from Caliper, USA.
(§4) 2.1 10 μl solution of each concentration of each compound was placed into 96-well plate and 90 μl of 1× kinase buffer was added. DMSO control group and control group without kinase activity were set up, which all contained 10 μl DMSO and 90 μl of 1× kinase buffer. Each group was mixed well at room temperature for 10 min, and then 5 μl of each group was transferred to a 384-well plate.
(§5) 2.2 Kinases were dissolved in 1× kinase buffer to prepare a 2.5× kinase solution. 10 μl of 2.5× kinase solution was transferred to the 384-well plate containing compounds of different concentrations. 10 μl of 2.5× kinase solution was added to DMSO control group and 10 μl of 1× kinase buffer without kinase was added to control group without kinase activity. The plate was incubated at room temperature for 10 min.
(§6) 2.3 ATP and the polypeptide labeled with FAM were dissolved in 1× kinase buffer to prepare 2.5× substrate solution. Then 10 μl of 2.5× substrate solution was transferred to the 384-well plate and incubated at 28° C. for 1 h.
(§7) 2.4 25 μl of termination solution was added to each well to terminate the reaction.
(§8) 2.5 The plate was placed on the LabChip EZ Reader to read the data of conversion rate and inhibitory rate (1%) was calculated according to formula: I %=(Max−Com)/(Max−Min)×100, wherein Max was the conversion rate of DMSO control group, Min was the conversion rate of control group without kinase activity, Com was the conversion rate of compound treatment group. IC50 was fitted by XLfit processing of the data.

Experiment [2] deals with T2, PI3Kα (Homo sapiens, UniProt P42336).
T2 construct: purchased Invitrogen PV4788
The experiment is described as follows: In vitro kinase activity (LabChip EZ Reader mobility shift), PI3Kα. The format is biochemical. Conditions: kinase subtype PI3Kα (p110α/p85a). On the procedure:
as §1, §2, §3, §4, §5, §6, §7, §8

Experiment [3] addresses T3, PI3Kβ (Homo sapiens, UniProt P42338).
T3 construct: purchased Millipore 14-603-K
The experiment is described as follows: In vitro kinase activity (LabChip EZ Reader mobility shift), PI3Kβ. The format is biochemical. Conditions: kinase subtype PI3Kβ (p110β). On the procedure: as §1, §2, §3, §4, §5, §6, §7, §8

Experiment [4] addresses T4, PI3Kγ (Homo sapiens, UniProt P48736).
T4 construct: purchased Invitrogen PR8641C
The experiment is described as follows: In vitro kinase activity (LabChip EZ Reader mobility shift), PI3Kγ. The format is biochemical. Conditions: kinase subtype PI3Kγ (p110γ). On the procedure: as §1, §2, §3, §4, §5, §6, §7, §8

Experiment [5] deals with SU-DHL-5 lymphoma cells. The experiment is described as follows: In vitro cell activity, CellTiter-Glo cell viability, SU-DHL-5. The format is cell-based. The note with it: Homo sapiens, SU-DHL-5 lymphoma cell line, 72 h. On the procedure:
Compounds: the compounds prepared in above examples of the present invention, each of which was prepared to a concentration of 10 mM in DMSO and diluted 3 times to 20000.00 nM, 6666.67 nM, 2222.22 nM, 740.74 nM, 246.91 nM, 27.43 nM, 9.14 nM, 3.05 nM successively.
The lymphoma cell lines SU-DHL-5 and SU-DHL-6 were purchased from the American Type Culture Collection (ATCC).
Reagents: PRMI-1640, purchased from Invitrogen (USA); FBS, purchased from Invitrogen (USA); EDTA, purchased from Sigma (USA); CellTiter-Glo® Luminescent Cell Viability Assay Kit, purchased from Progema (USA); Backseal membrane, purchased from Perkin Elmer (USA).
The cells were thawed in a 37° C. water bath and then transferred to 15 ml preheated medium. The cells were centrifuged at 1000 rpm for 5 min and the medium was discarded. The cells were resuspended in 15 ml fresh medium and transferred to T75 culture flask and incubated in an incubator at 37° C. with 5% CO2. The medium was replaced with fresh medium 24 h later.
The resuscitated cells above were transferred to a 50 ml sterile centrifuge tube and centrifuged at 1000 rpm for 5 min. The medium was discarded, and the cells were dispersed uniformly and counted. The appropriate cell concentration was adjusted in 15 ml fresh medium and added to T75 culture flask. The flask was incubated in an incubator at 37° C. with 5% CO2.
When the cells in the T75 culture flask grew to 1×10^5˜1×10^6 cells/ml, the cells were resuspended with fresh medium (RPMI-1640+20% FBS) and counted. The resuspended cells were adjusted to the following eight concentrations: 1×10^4 cells/ml, 2×10^4 cells/ml, 3×10^4 cells/ml, 5×10^4 cells/ml, 8×10^4 cells/ml, 1×10^5 cells/ml, 1.5×10^5 cells/ml, and 2×10^5 cells/ml. The above cell suspensions were added to 96-well cell culture plate, 100 μl each well (1×10^3 cells/ml, 2×10^3 cells/ml, 3×10^3 cells/ml, 5×10^3 cells/ml, 8×10^3 cells/ml, 1×10^4 cells/ml, 1.5×10^4 cells/ml, and 2×10^4 cells/ml, respectively). Each concentration was done double in three plates. 72 h later, 100 μl CellTiter-Glo® Luminescent Cell Viability Assay buffer was added to test wells and shaken gently. 10 min later, the Assay plate was attached at the bottom by Backseal membrane and placed on Envison to detect the fluorescence reading. Cell survive (%) was calculated according to the formula: cell survive (%)=(Com−Min)/(Max−Min), wherein Max was the reading of solvent control group, Min was the reading of control group without cells, and Com was the reading of compound treatment group.

Where only a bound is given, the exact number is not on record here.

Broadly, the IC50 is the concentration that inhibits the measured activity by half.

T4 sequence (P48736 whole entry): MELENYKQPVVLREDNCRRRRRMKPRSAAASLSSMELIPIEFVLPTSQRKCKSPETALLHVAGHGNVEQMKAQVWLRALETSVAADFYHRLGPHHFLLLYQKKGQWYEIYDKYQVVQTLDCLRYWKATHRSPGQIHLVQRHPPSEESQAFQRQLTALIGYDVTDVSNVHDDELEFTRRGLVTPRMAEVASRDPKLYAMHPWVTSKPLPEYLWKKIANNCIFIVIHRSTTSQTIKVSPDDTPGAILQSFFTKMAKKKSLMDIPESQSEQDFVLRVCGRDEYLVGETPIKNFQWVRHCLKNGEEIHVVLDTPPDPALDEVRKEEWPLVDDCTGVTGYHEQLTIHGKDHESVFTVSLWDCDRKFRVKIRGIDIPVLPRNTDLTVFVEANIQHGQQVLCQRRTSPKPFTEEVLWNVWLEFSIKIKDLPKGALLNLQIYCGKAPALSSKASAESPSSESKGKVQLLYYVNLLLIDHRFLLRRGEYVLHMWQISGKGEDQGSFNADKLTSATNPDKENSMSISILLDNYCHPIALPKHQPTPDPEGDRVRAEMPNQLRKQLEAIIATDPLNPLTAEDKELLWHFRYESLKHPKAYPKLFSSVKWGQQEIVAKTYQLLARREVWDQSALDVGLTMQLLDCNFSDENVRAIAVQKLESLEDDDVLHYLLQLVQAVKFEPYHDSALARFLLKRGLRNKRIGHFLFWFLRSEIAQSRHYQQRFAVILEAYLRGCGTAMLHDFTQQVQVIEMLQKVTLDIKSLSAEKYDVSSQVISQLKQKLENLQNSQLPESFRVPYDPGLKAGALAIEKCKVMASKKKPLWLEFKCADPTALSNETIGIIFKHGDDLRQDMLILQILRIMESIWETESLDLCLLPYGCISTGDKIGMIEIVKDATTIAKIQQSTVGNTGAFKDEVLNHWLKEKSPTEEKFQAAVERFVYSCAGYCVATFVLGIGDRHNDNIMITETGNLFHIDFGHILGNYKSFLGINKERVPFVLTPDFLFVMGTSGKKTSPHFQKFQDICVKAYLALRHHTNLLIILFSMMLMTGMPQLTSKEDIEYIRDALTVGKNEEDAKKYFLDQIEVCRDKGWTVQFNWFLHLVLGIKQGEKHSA
T2 sequence (P42336 whole entry): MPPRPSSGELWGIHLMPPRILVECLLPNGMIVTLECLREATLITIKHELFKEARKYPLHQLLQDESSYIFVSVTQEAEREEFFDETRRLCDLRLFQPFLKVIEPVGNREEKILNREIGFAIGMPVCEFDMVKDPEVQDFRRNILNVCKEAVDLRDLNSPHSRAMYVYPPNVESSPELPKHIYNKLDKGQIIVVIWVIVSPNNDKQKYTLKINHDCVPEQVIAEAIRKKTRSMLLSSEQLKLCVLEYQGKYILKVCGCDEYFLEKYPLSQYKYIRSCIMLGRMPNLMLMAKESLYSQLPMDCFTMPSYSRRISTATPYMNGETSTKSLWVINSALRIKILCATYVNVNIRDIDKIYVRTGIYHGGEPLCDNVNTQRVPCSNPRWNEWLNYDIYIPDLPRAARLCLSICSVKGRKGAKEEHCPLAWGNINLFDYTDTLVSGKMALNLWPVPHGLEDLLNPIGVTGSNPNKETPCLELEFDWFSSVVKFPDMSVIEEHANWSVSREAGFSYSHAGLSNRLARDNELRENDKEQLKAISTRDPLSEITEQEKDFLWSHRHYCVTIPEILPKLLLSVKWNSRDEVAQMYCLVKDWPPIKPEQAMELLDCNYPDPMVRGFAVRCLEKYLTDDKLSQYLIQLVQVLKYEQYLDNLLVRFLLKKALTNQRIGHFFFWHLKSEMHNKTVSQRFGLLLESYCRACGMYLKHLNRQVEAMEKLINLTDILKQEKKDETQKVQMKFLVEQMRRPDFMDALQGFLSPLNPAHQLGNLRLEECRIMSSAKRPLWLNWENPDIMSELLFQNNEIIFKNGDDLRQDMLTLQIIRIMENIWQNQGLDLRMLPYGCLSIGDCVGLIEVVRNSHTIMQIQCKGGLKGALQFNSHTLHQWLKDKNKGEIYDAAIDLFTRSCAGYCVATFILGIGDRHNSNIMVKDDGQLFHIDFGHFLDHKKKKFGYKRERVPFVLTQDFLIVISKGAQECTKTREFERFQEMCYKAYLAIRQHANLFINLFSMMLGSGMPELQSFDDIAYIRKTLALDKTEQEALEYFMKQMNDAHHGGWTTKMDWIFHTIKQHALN
T2 sequence (P27986 whole entry partner): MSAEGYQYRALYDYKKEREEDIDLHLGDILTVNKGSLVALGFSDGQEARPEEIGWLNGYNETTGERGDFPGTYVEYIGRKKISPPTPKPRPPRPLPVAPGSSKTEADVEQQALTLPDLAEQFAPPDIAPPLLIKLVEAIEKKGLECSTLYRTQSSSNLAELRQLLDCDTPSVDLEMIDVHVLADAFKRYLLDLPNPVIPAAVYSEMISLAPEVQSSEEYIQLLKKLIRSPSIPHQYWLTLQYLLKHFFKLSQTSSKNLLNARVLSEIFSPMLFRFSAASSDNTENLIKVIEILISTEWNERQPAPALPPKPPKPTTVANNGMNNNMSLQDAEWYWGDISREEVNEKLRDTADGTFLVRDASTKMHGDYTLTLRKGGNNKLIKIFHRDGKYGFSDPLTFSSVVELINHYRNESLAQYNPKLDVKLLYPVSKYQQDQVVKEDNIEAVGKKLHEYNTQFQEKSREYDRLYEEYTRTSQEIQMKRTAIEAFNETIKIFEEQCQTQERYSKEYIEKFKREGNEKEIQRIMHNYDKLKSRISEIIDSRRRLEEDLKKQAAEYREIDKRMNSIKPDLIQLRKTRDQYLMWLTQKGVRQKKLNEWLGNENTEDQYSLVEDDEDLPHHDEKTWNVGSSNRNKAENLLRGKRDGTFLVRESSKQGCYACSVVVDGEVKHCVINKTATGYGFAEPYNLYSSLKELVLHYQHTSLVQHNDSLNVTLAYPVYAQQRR
T1 sequence (O00329 whole entry): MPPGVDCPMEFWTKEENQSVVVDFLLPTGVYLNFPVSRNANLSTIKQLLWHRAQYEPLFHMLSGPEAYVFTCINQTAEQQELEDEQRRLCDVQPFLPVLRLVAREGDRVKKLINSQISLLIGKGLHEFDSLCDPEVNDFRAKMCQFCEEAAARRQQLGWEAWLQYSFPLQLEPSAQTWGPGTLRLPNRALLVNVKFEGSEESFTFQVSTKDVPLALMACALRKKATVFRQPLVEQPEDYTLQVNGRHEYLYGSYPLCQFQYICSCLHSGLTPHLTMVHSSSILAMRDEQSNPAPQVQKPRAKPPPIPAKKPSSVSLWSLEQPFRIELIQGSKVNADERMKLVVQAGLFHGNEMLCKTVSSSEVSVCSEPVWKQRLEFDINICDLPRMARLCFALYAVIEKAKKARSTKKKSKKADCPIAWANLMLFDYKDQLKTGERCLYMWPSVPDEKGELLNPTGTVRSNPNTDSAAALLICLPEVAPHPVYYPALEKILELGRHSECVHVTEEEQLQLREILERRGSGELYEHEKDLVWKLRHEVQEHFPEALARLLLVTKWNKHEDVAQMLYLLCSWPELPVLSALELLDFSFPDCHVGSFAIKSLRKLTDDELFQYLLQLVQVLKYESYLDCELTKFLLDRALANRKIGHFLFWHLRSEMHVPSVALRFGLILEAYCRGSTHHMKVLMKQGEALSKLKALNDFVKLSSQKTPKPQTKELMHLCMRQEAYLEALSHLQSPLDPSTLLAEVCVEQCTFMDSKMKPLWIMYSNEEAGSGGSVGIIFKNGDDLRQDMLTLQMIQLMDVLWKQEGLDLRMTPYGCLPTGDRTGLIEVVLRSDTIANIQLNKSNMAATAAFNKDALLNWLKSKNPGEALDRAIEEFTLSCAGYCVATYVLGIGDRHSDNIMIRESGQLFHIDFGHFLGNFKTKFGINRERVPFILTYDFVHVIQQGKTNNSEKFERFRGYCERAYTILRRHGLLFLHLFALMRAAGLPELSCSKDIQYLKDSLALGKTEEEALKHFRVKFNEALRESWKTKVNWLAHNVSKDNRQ
T1 sequence (P27986 whole entry partner): as the sequence (P27986 whole entry partner) above
T3 sequence (P42338 whole entry): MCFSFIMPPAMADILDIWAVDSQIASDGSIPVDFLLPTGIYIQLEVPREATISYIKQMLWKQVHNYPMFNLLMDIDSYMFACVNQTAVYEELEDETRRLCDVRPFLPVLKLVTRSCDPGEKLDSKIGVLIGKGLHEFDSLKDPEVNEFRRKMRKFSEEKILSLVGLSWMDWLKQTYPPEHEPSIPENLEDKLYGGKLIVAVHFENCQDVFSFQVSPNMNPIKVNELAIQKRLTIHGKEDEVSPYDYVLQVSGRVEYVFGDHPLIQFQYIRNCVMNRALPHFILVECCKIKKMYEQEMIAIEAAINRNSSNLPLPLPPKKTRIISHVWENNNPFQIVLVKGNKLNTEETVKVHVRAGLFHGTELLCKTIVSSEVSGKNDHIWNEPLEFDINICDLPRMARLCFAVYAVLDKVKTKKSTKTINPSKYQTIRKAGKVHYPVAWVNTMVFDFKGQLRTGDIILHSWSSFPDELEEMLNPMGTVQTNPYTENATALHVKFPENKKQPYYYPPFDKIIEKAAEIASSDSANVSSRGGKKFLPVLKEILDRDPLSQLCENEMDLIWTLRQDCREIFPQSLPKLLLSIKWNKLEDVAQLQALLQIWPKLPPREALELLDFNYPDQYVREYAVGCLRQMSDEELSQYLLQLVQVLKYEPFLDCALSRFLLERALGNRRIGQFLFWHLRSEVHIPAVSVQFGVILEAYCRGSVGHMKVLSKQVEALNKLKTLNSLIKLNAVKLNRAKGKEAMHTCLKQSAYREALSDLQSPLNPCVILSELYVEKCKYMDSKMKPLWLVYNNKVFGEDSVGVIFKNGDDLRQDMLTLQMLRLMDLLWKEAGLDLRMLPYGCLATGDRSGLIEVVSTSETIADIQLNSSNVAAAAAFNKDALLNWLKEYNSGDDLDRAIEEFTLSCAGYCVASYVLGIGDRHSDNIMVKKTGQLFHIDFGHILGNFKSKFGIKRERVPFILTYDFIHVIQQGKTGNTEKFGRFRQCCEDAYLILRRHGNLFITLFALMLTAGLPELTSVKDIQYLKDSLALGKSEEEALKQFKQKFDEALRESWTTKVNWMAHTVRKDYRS
T3 sequence (P27986 whole entry partner): as the sequence (P27986 whole entry partner) above

With `CC(Nc1ncnc(N)c1C#N)c1c(-c2cc(F)cc(F)c2)c(=O)c2cc(F)ccc2n1C` (stereo not shown) [Comparative Example 1, 4-Amino-5-cyano-6-(1-(3-(3,5-difluorophenyl)-6-fluoro-1-methyl-4-oxo-1,4-dihydroquinoline-2-yl)ethylamino)pyrimidine, reference compound], in experiment [1] (PI3Kδ versus PI3Kα, PI3Kβ, PI3Kγ), the “selectivity (PI3Kδ over the other PI3K subtypes), in words” value is listed as “poor”. For the same molecule, the concentration for half-maximal inhibition (IC50) in experiment [1] came to 20 nM.

Take `N#Cc1c(N)nc(N)nc1NCc1c(-c2ccccc2)oc2ccccc2c1=O` [Example 2, 2,4-Diamino-5-cyano-6-(4-oxo-2-phenyl-4H-chromen-3-yl) methylaminopyrimidine]: the concentration for half-maximal inhibition (IC50) in experiment [1] is 13.5 nM.

With `CC(Nc1ncnc(N)c1C#N)c1c(-c2ccccc2)oc2ccccc2c1=O` (stereo not shown) [Example 3, 4-Amino-5-cyano-6-(1-(4-oxo-2-phenyl-4H-chromen-3-yl)ethylamino) pyrimidine], the IC50 in experiment [1] is 17 nM; in experiment [2], above 1000 nM; in experiment [3] it was above 1000 nM; in experiment [4], above 1000 nM; in experiment [5] it was 0.86 µM.

In the case of `CC(Nc1ncnc(N)c1C#N)c1c(-c2ccccc2)oc2c(Cl)cccc2c1=O` (stereo not shown) [Example 5, 4-Amino-5-cyano-6-(1-(8-chloro-4-oxo-2-phenyl-4H-chromen-3-yl)ethylamino) pyrimidine], the IC50 in experiment [1] is 11 nM; in experiment [2], above 1000 nM; in experiment [3], above 1000 nM; in experiment [4] it was above 1000 nM; in experiment [5], 0.61 µM.

As to `CC(Nc1nc(N)nc(N)c1C#N)c1c(-c2ccccc2)oc2c(Cl)cccc2c1=O` (stereo not shown) [Example 6, 2,4-Diamino-5-cyano-6-(1-(8-chloro-4-oxo-2-phenyl-4H-chromen-3-yl)ethylamino)pyrimidine], the IC50 in experiment [1] is 9.5 nM; in experiment [2] it was above 1000 nM; in experiment [3], 881 nM; in experiment [4], 84 nM; in experiment [5] it was 1.23 µM.

Consider `CC(Nc1ncnc(N)c1C#N)c1c(-c2ccccc2)oc2c(F)cccc2c1=O` (stereo not shown) [Example 7, 4-Amino-5-cyano-6-(1-(8-fluoro-4-oxo-2-phenyl-4H-chromen-3-yl)ethylamino) pyrimidine], for which the half-inhibitory concentration (IC50) is 5 nM in experiment [1]; above 1000 nM in experiment [2]; above 1000 nM in experiment [3]; above 1000 nM in experiment [4]; 1.43 µM in experiment [5].

For the molecule `CC(Nc1nc(N)nc(N)c1C#N)c1c(-c2ccccc2)oc2c(F)cccc2c1=O` (stereo not shown) [Example 8, 2,4-Diamino-5-cyano-6-(1-(8-fluoro-4-oxo-2-phenyl-4H-chromen-3-yl)ethylamino) pyrimidine], the half-maximal inhibitory concentration (IC50) in experiment [1] was 6.6 nM; in experiment [2], above 1000 nM; in experiment [3] it was 385 nM; in experiment [4], 134 nM; in experiment [5], 1.02 µM.

In the case of `CC(Nc1ncnc(N)c1C#N)c1c(-c2ccccc2)[nH]c2c(Cl)cccc2c1=O` (stereo not shown) [Example 9, 4-Amino-5-cyano-6-((1-(8-chloro-4-oxo-2-phenyl-1,4-dihydroquinolin-3-yl)ethyl)amino)pyrimidine], the IC50 was 3.8 nM in experiment [1]; 219 nM in experiment [2]; 139 nM in experiment [3]; 66 nM in experiment [4]; 0.58 µM in experiment [5].

Consider `CC(Nc1nc(N)nc(N)c1C#N)c1c(-c2ccccc2)[nH]c2ccccc2c1=O` (stereo not shown) [Example 22, 2,4-Diamino-5-cyano-6-((1-(4-oxo-2-phenyl-1,4-dihydroquinolin-3-yl)ethyl)amino)pyrimidine], for which the IC50 came out at 11 nM in experiment [1], 675 nM in experiment [2], 635 nM in experiment [3] and 60 nM in experiment [4].

As to `CC(Nc1nc(N)nc(N)c1C#N)c1c(-c2ccccc2)[nH]c2c(Cl)cccc2c1=O` (stereo not shown) [Example 23, 2,4-Diamino-5-cyano-6-((1-(8-chloro-4-oxo-2-phenyl-1,4-dihydroquinolin-3-yl)ethyl)amino)pyrimidine], the IC50 in experiment [1] was 1.4 nM; in experiment [2], 114 nM; in experiment [3], 60 nM; in experiment [4] it was 5.7 nM.

Consider `CC(Nc1nc(N)nc(N)c1C#N)c1c(-c2ccccc2)n(C)c2ccccc2c1=O` (stereo not shown) [Example 25, 2,4-Diamino-5-cyano-6-((1-(1-methyl-4-oxo-2-phenyl-1,4-dihydroquinolin-3-yl)ethyl)amino) pyrimidine], for which the IC50 in experiment [1] was found to be 1.8 nM; in experiment [2], 127 nM; in experiment [3], 113 nM; in experiment [4], 21 nM.

Take `CC(Nc1ncnc(N)c1C#N)c1c(-c2cccc(F)c2)n(C)c2ccccc2c1=O` (stereo not shown) [Example 26, 4-Amino-5-cyano-6-((1-(1-methyl-4-oxo-2-(3-fluorophenyl)-1,4-dihydroquinolin-3-yl)ethyl)amino) pyrimidine]: the IC50 was 2.3 nM in experiment [1], above 1000 nM in experiment [2], 972 nM in experiment [3] and 814 nM in experiment [4].

For `CC(Nc1nc(N)nc(N)c1C#N)c1c(-c2ccccc2)n(C)c2c(Cl)cccc2c1=O` (stereo not shown) [Example 27, 2,4-Diamino-5-cyano-6-((1-(8-chloro-1-methyl-4-oxo-2-phenyl-1,4-dihydroquinolin-3-yl)ethyl)amino)pyrimidine], the IC50 in experiment [1] is 1.4 nM; in experiment [2] it was 39 nM; in experiment [3] it was 38 nM; in experiment [4] it was 11 nM.

With `CC(Nc1nc(N)nc(N)c1C#N)c1c(-c2cccc(F)c2)oc2ccccc2c1=O` (stereo not shown) [Example 30, 2,4-Diamino-5-cyano-6-(1-(2-(3-fluorophenyl)-4-oxo-4H-chromen-3-yl)ethylamino) pyrimidine], the IC50 in experiment [1] was 3.6 nM; in experiment [2], above 1000 nM; in experiment [3], above 1000 nM; in experiment [4] it was 155 nM.

On to `CCC(Nc1nc(N)nc(N)c1C#N)c1c(-c2ccccc2)oc2ccccc2c1=O` (stereo not shown) [Example 32, 2,4-Diamino-5-cyano-6-(1-(4-oxo-2-phenyl-4H-chromen-3-yl)propylamino) pyrimidine], for which the IC50 in experiment [1] was 4.8 nM; in experiment [2] it was above 1000 nM; in experiment [3], above 1000 nM; in experiment [4] it was 673 nM.

The record behind these values is patent US10077258B2, “Substituted pyrimidine compounds as phosphatidylinositol 3-kinase delta inhibitor and use thereof” (NANJING SANHOME PHARMACEUTICAL CO., LTD., priority 2015, dated 2018).
